Source: patent US10662156B2, “Guanidine derivative and medical use thereof” (Toray Industries, Inc., priority 2016, dated 2020)

Tested on: oxazolone-induced atopic dermatitis mouse models
Test: Suppressive effect on auricular hypertrophy in oxazolone-induced atopic dermatitis mouse model
Format: in vivo, BALB/c male mice
Conditions: 30 mg/kg orally twice a day
Experimental: The guanidine derivative (I) or the pharmacologically acceptable salt thereof was evaluated for its exertion of a therapeutic effect on atopic dermatitis, one type of allergic disease, in an in vivo experimental system using oxazolone-induced atopic dermatitis mouse models in accordance with the method described in the literature (Plos One, Vol. 8, No. 7, e6614). Specifically, the evaluation was conducted by verifying the suppressive effect of the compound on auricular hypertrophy by using, as an index, the thickness of the auricle increased with the progression of symptoms in oxazolone-induced atopic dermatitis models.
Seven-week-old BALB/c male mice (Charles River Laboratories Japan, Inc.) were preliminarily bred and then used at the age of 8 weeks. […]
The thickness of the auricle before oxazolone administration (before induction) at the date of induction and the thickness of the auricle at post-induction day 28 were measured using a digital micrometer (Mitsutoyo Corp.), and the change therebetween (the thickness of the auricle at post-induction day 28—the thickness of the auricle before induction) was used as an index for drug efficacy evaluation. […]

## Cl.N/C(=N\S(=O)(=O)c1ccccc1)NCc1cnc(-c2ccc(Cl)cc2)c(-c2ccc(Cl)cc2)c1 [Compound of Example 2, N-(amino(((5,6-bis(4-chlorophenyl)pyridin-3-yl)methyl)amino)methylene)benzenesulfonamide Hydrochloride]
post-induction days 21 to 27, post-induction day 28 vs before induction, vehicle group 515 μm
  change in the thickness of the auricle (increase): 419 μm
T test, P<0.05
  change in the thickness of the auricle compared to the vehicle administration group (in words): statistically significantly decreased
